From patent US10040783B2 (Emory University, priority 2011, dated 2018)
“Also recorded” adds a separate entry of the source. Read-outs that look alike come from different tables or passages of the source.

What was measured:
EP4 receptor = EP4 receptor (Homo sapiens, UniProt P35408); assay: Schild regression analysis for EP4 receptor; type: cell-based; settings: for Kb: read-out: KB (μM) EP4, from Schild regression analysis
Text: (§1) Information on the modality of antagonism can be obtained by performing Schild regression analysis characterized by: log (dr−1)=log XB−log KB. In the equation, dose ratio (dr)=fold shift in EC50, XB=[antagonist], KB=equilibrium dissociation constant for the antagonist-receptor complex. […] Thus, a lower KB value indicates a higher inhibitory potency.

[1] = tested on: rat primary hippocampal cultures; assay: NMDA-induced LDH release (excitotoxicity) in primary hippocampal cultures; type: cell-based
Text: Excitotoxicity caused by NMDA receptor activation is recognized to induce neuronal apoptosis both in vitro and in vivo in cortical neurons. NMDA receptor activation can, via COX-2, cause prostaglandin production, including PGE2. Activation of the EP2 receptor by PGE2 in microglia can promote neuroinflammation in several models of neurodegenerative diseases. The effect of EP2 antagonist compounds were examined on NMDA-induced excitotoxicity. Rat primary hippocampal cultures (DIV13-15) were preincubated with vehicle or increasing concentrations of test compound for 15-20 min, followed by treatment with NMDA (30 μM) plus glycine (10 μM) overnight in continued presence of the test compound. Lactate dehydrogenase (LDH) release was used as the measure of neuronal injury.

EP2 receptor [2] = molecular target: T1, EP2 receptor (Homo sapiens, UniProt P43116); assay: Schild regression of PGE2-induced EP2 activation in C6G-EP2 cells; type: cell-based; parameters: expressed in transfected cells; host or cells: C6G-EP2 cells; settings: for Schild plot slope: PGE2; for Modality of antagonism on EP2 receptor: Schild plots
T1 sequence (P43116 whole entry): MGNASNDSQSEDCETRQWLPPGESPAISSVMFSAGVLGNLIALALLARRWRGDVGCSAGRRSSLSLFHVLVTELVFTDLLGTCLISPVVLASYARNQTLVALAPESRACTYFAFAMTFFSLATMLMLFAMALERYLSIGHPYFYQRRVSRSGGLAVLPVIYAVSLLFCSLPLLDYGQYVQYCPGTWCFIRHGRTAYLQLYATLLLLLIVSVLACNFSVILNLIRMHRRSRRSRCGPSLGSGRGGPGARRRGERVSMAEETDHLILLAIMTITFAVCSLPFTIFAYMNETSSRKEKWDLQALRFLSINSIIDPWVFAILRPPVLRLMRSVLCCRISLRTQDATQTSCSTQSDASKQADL
Method: as §1
To perform the Schild regression, C6G-EP2 cells were incubated first with vehicle, 0.01, 0.1 or 1 μM of test compound for 5 minutes, then with increasing concentrations of PGE2 to activate the EP2 receptor.

C6G cells = assay: CellTiter-Glo luminescent cell viability assay (cytotoxicity)
in vitro = settings: rat; for CC50 at 48 h: C6G cells
PC3 cells [3] = assay: MTT cell proliferation assay, butaprost-promoted growth; type: cell-based
Text: (§2) PGE2/EP2 signaling has been recognized to play important roles in mediating tumor progression and tumor-associated angiogenesis.

PC3 cells [4] = assay: Cell invasion across Matrigel-coated filter; type: cell-based; settings: for Effect on PC3 cell invasion (cells moved across Matrigel-coated filter): butaprost 1 μM
Text: as §2

[5] = tested on: iNOS, COX-2, IL-1β and IL-6 expression; assay: qRT-PCR of inflammatory mediators in microglia-enriched cultures; type: cell-based, rat
Text: Nitric oxide (NO) synthesized by iNOS and prostaglandins produced by COX-2 are effectors of neurotoxicity and neuroinflammation, thus, these two inducible enzymes have been recognized as inflammatory mediators produced in activated microglia. As the dominant enzymatic product of COX-2, PGE2 therefore might play a role in microglia-mediated neuroinflammation and neurodegeneration.

EP2 receptor [6] = molecular target: T1, EP2 receptor; assay: Butaprost-induced cAMP accumulation in PC3 cells; type: cell-based; parameters: PC3 cells express a substantially higher level of EP2 than DU145 and LNCap cells; endogenous in cells; host or cells: PC3 cells; settings: concentration-dependent
Text: as §2

human DP1 receptors = molecular target: T2, human DP1 receptors (Homo sapiens, UniProt Q13258); assay: DP1 assay: BW245C-induced cAMP, TR-FRET, in C6G cells expressing DP1; type: cell-based; settings: agonist BW245C
T2 construct: expressed in transfected cells
T2 sequence (Q13258 1-359): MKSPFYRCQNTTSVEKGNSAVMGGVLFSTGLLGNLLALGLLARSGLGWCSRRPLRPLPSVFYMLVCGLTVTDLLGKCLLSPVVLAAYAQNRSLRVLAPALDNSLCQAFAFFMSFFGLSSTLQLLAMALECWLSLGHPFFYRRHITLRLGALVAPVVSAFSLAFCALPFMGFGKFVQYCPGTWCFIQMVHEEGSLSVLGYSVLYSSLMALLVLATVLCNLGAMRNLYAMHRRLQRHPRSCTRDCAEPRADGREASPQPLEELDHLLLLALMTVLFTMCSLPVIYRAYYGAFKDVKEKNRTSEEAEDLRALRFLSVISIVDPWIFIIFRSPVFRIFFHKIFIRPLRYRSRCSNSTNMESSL
Method: DP1 Assay Both DP1 and EP2 receptors are positively coupled through Gαs to cAMP production and conduct very similar physiological and pathological events. Among the eight canonical prostanoid receptors, DP1 has similarities to EP2 at both protein and DNA level. C6G cells that stably expressing human DP1 receptors were seeded into 384-well plates in 30 μL complete medium (4,000 cells per well) and grown overnight. The medium was thoroughly withdrawn and 10 μL HBSS (HyClone) plus 20 μM rolipram were added into the wells to block phosphodiesterase. […] The cells were lysed in 10 μL lysis buffer containing the FRET acceptor cAMP-d2 and 1 min later another 10 μL lysis buffer with anti-cAMP-Cryptate was added. […] The FRET signal is expressed as F665/[…].

[7] = tested on: rat microglia-enriched cultures; assay: LDH release in microglia-enriched cultures; type: cell-based; settings: 10 μM, overnight, basal
Method: Microglia are the initial and major mediators of neuroinflammation and neurodegeneration in various models of neurological disorders. EP2 receptor has been reported to regulate microglial activation and subsequent neurotoxicity in several animal models. The effects of EP2 activation in microglia were investigated. Rat microglia-enriched cultures were incubated with vehicle, butaprost, or compound A1 overnight. The cellular viability was evaluated by measuring Lactate dehydrogenase (LDH) release.

[8] = Rattus norvegicus, 10 μM compound, NMDA 30 μM plus glycine 10 μM overnight, read-out: NMDA-induced LDH release, % of control
[9] = C6G-EP2 cells, PGE2 as agonist, read-out: KB (nM) EP2, from Schild regression analysis
[10] = additional compounds tables, read-out: EP2 KB

EP4 receptor, sequence (P35408 whole entry): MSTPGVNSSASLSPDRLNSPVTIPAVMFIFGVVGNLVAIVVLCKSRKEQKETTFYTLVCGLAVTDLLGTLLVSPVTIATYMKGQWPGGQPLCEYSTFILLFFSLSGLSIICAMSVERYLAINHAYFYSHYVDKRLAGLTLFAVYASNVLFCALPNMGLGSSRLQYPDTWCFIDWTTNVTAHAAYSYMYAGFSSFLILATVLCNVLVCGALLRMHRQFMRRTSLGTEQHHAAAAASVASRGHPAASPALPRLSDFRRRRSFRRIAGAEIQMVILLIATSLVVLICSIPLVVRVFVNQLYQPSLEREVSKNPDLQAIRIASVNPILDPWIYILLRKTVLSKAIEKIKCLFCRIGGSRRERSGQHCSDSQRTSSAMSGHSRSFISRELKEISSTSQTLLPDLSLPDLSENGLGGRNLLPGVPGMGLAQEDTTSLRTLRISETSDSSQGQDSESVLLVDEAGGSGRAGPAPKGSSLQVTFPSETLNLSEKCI

Kb (EP4 receptor) [µM]	Selective index, KB EP4/KB EP2 (EP4 receptor)	Kb (EP2 receptor [2]; [9]) [nM]	Kb (human DP1 receptors) [nM]	SMILES	CC50 at 48 h (in vitro) [µM]	Therapeutic index (in vitro), CC50/KB for EP2 (C6G cells)	further results
18.9				COc1cc(/C=C/C(=O)NCCN2CCCCC2C)cc(OC)c1OC (centres unmarked) [1e]			NMDA-induced LDH release, % of control ([1]; 10 μM compound, NMDA 30 μM plus glycine 10 μM overnight): did not show any effect and not; KB (nM) EP2, from Schild regression analysis (EP2 receptor [2]; C6G-EP2 cells, PGE2 as agonist): Inactive; CC50 (C6G cells; read-out: CC50, half maximal cytotoxic concentration, C6G cells after 48 h incubation): 316 µM
5.4	2,600	2.1		COc1cc(C=CC(=O)NCCn2c(C)cc3cc(F)ccc32)cc(OC)c1OC [1f, N-(2-(5-fluoro-2-methyl-1H-indol-1-yl)ethyl)-3-(3,4,5-trimethoxyphenyl)acrylamide]	155	73,800	activity at 10 µM [1, 8]: 38.5%
17.2	921	18.7		Cc1cc2ccccc2n1CCNC(=O)C=Cc1cc(F)c(F)c(F)c1 [1t, N-(2-(2-methyl-1H-indol-1-yl)ethyl)-3-(3,4,5-trifluorophenyl)acrylamide]	46	2,460	
19.9	715	27.8		Cc1cc2cc(F)ccc2n1CCNC(=O)C=Cc1cc(F)c(F)c(F)c1 [1u, N-(2-(5-fluoro-2-methyl-1H-indol-1-yl)ethyl)-3-(3,4,5-trifluorophenyl)acrylamide]	62	2,230	
4.7	2,470	1.9		COc1ccc(/C=C/C(=O)NCCn2c(C)cc3ccccc32)cc1Cl [1w]	481	253,000	activity at 10 µM [1, 8]: 78.4%
3.3	525	6.3		COc1ccc(/C=C/C(=O)NCCn2c(C)cc3cc(F)ccc32)cc1Cl [1x]	601	95,400	
6.9	859	8		COc1cc(OC)c(C=CC(=O)NCCn2c(C)cc3ccccc32)cc1Br [1y, 3-(5-bromo-2,4-dimethoxyphenyl)-N-(2-(2-methyl-1H-indol-1-yl)ethyl)acrylamide]	1240	155,000	
				COc1cc(C=CC(=O)NCCn2c(C)cc3ccccc32)cc(OC)c1OC [A1, N-(2-(2-methyl-1H-indol-1-yl)ethyl)-3-(3,4,5-trimethoxyphenyl)acrylamide]			Effect on butaprost-induced PC3 cell growth (PC3 cells [3]; concentration-dependent): attenuated; Effect on PC3 cell invasion promoted by EP2 activation (PC3 cells [4]; cotreatment 1 μM with butaprost 1 μM): inhibited; also recorded: blocked; activity at 0.01 µM ([1]; Rattus norvegicus, 0.01 μM compound, NMDA 30 μM plus glycine 10 μM overnight, read-out: NMDA-induced LDH release, % of control): 94%; activity at 0.1 µM ([1]; Rattus norvegicus, 0.1 μM compound, NMDA 30 μM plus glycine 10 μM overnight, read-out: NMDA-induced LDH release, % of control): 87.8%; activity at 1 µM ([1]; Rattus norvegicus, 1 μM compound, NMDA 30 μM plus glycine 10 μM overnight, read-out: NMDA-induced LDH release, % of control): 73.9%; activity at 10 µM [1, 8]: 50.8%; EC50 ([1]; rat hippocampal cultures, read-out: EC50 for the reduction of NMDA-induced LDH release): 800 nM; Effect on butaprost-induced upregulation of inflammatory mediators ([5]; 0.1-10 μM, concentration-dependent): inhibited; also recorded: attenuated; CC50 (in vitro): 172 µM; Schild plot slope (EP2 receptor [2]; C6G-EP2 cells): 1.0; Modality of antagonism on EP2 receptor (EP2 receptor [2]): competitive antagonism; Inhibition of butaprost-induced EP2 receptor activation (EP2 receptor [6]): robust competitive inhibition
2	435	4.6		COc1ccc(C=CC(=O)NCCn2c(C)cc3ccccc32)cc1OC [A2, 3-(3,4-dimethoxyphenyl)-N-(2-(2-methyl-1H-indol-1-yl)ethyl)acrylamide]	397	86,300	activity at 10 µM [1, 8]: 77.8%; Schild plot slope (EP2 receptor [2]; C6G-EP2 cells): 1.1; Modality of antagonism on EP2 receptor (EP2 receptor [2]): competitive antagonism
			227	COc1ccc(/C=C/C(=O)NCCc2c(C)[nH]c3ccccc23)cc1OC [TG7-76]			Kb (EP2 receptor [2]; [10]): 6 nM
			745	Cc1cc(/C=C/C(=O)NCCn2c(C)cc3ccccc32)cc(C)c1F [TG7-98, 3-(4-fluoro-3,5-dimethylphenyl)-N-(2-(2-methyl-1H-indol-1-yl)ethyl)acrylamide]			Kb (EP2 receptor [2]; [10]): 4.4 nM
			1430	COc1ccc(C(=O)NCCn2c(C)cc3ccccc32)cc1OC [TG7-112-2, 3,4-dimethoxy-N-(2-(2-methyl-1H-indol-1-yl)ethyl)benzamide]			
			5830	CC(=O)Nc1ccc(C(=O)NCCn2c(C)cc3ccccc32)cc1 [TG7-117, 4-acetamido-N-(2-(2-methyl-1H-indol-1-yl)ethyl)benzamide]			Kb (EP2 receptor [2]; [10]): 83 nM
				CCCC1([C@H](O)C/C=C/[C@H]2[C@H](O)CC(=O)[C@@H]2CCCCCCC(=O)OC)CCC1 [butaprost]			Concentration giving maximal response of PC3 cell growth (PC3 cells [3]): 1 µM; Effect of EP2 activation on PC3 cell growth (PC3 cells [3]): promoted PC3 cell growth; Effect on PC3 cell invasion (cells moved across Matrigel-coated filter) (PC3 cells [4]): promoted cell invasion; Effect on PC3 cell invasion (cells moved across Matrigel-coated filter) (PC3 cells [4]; listed as Butaprost): significantly increased; LDH release compared to control [7]: 138%; COX-2 expression increase ([5]; butaprost 1 μM, qRT-PCR): 16.3 fold; IL-1β expression increase ([5]; butaprost 1 μM, qRT-PCR): 1.8 fold; IL-6 expression increase ([5]; butaprost 1 μM, qRT-PCR): 11.1 fold; iNOS expression increase ([5]; butaprost 1 μM, qRT-PCR): 3.4 fold

SMILES	Kb (EP4 receptor) [µM]	Selective index, KB EP4/KB EP2 (EP4 receptor)	Kb (EP2 receptor [2]; [9]) [nM]	Kb (human DP1 receptors) [nM]	CC50 at 48 h (in vitro) [µM]	Therapeutic index (in vitro), CC50/KB for EP2 (C6G cells)	further results
COc1cc(/C=C/C(=O)NCCc2c(C)[nH]c3ccccc23)cc(OC)c1OC [TG7-74]				112			Kb (EP2 receptor [2]; [10]): 2.9 nM
